Source: paper PMC12191924, “A new naphthalene-based fluorogenic substrate for cytochrome P450 4A11” (Biochemical Journal, 2025)

Target: T1, pooled human liver microsome (HLM) preparations (Homo sapiens, UniProt Q02928)
T1 sequence (Q02928 5-519): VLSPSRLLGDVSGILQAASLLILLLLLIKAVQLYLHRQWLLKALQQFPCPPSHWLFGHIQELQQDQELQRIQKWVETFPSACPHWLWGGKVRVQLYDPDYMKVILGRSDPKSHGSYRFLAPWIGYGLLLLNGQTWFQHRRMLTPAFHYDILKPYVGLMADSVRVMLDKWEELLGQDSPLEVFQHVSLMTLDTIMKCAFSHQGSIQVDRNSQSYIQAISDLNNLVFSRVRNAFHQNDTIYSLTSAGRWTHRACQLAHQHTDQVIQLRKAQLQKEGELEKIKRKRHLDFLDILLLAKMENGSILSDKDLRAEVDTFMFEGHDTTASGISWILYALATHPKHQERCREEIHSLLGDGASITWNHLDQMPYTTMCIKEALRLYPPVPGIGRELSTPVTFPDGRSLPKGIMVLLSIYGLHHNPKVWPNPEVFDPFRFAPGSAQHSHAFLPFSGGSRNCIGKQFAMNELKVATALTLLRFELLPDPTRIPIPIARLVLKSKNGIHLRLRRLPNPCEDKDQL
Test: Inhibition of MONACRA demethylation in pooled HLM preparations
Type: biochemical
Details: all studied HLM samples; from inhibitory analysis with epalrestat
Excerpt: To probe the role of CYP4A11 and CYP1A2 in MONACRA metabolism by HLM, we employed inhibitory analysis with the use of epalrestat as a specific inhibitor of CYP4A11 [22] and fluvoxamine as a CYP1A2 inhibitor [37]. We explored the effect of the inhibitors on the activity of recombinant CYP1A2 and CYP4A11, as well as the activity of six different preparations of HLM (preparation X347 was not available at the time of the study).
Figure 12: Effect of epalrestat (A) and fluvoxamine (B) on 3-(6-methoxynaphthalen-2-yl)acrylic acid (MONACRA) demethylation by recombinant CYP1A2 (black) and CYP4A11 (red) and three pooled human liver microsome (HLM) preparations: X263 (green), DNJ (blue), and WGP (brown). Solid lines represent the approximation of the datasets by eqn 1 (in the instances of pure inhibition) or a combination of two hyperbolic equations (in the cases of activation or combined inhibition and activation). All experiments were carried out at 150 µM MONACRA concentration. The datasets shown in the graphs represent the averages of the results of four (fluvoxamine) or two (epalrestat) individual experiments.
This study used preparations of pooled HLMs from 50, 150, or 200 donors (mixed gender). The preparations CDN, DNJ, and WGP were INVITROCYP 150-Donor Human Liver Microsomes obtained from BioIVT Corporation (Westbury, NY). Lot EGW is INVITROCYP M-Class 50-Donor HLM procured from the same company. Lots 1,910,096 and 1,210,347 were XTreme 200 Mixed Gender HLM (200 donors) purchased from XenoTech LLC (Kansas City, KS), currently a part of BioIVT. Lot 2,110,263 corresponds to mixed gender HLM from 50 donors from the same company. These lots are referred to herein as X096, X347, and X263, respectively. The supplier of the HLM preparations used in our studies, BioIVT Corporation, has declared to adhere to the regulations of the Department of Health and Human Services for the protection of human subjects (45 CFR §46.116 and §46.117) and Good Clinical Practice, (ICH E6) in obtaining the samples of human tissues used for producing the preparations of human subcellular fractions available from these companies.
Inhibition of MONACRA metabolism by epalrestat and fluvoxamine was studied using the high-throughput assay described above. The substrate concentration was kept constant at 150 µM. Each column of the well plate comprised eight wells with different concentrations of inhibitor complemented with two wells with no inhibitor added (100% activity samples) and two wells with no inhibitor and no NADPH added (‘blank’ samples). […] The fractional inhibition at each inhibitor concentration was determined from the ratio of the reaction rate in the presence of an inhibitor to the rate observed at no inhibitor added. The resulting dependence of the fractional inhibition on the inhibitor concentration was fitted to a four-parameter logistic equation (Hill equation):
(1) FI=v0−vi/v0=Amax[I]^N/IC50+[I]^N
In this equation, F I and vi are the fractional inhibition and the reaction velocity observed at inhibitor concentration [I], v0 is the reaction rate at no inhibitor added, and A max is the maximal amplitude of inhibition. IC 50 is the concentration of inhibitor at which the inhibition reaches 50% of its maximal amplitude (A max), and N is the Hill coefficient.

For `COc1ccc2cc(C=CC(=O)O)ccc2c1` [MONACRA, 3-(6-methoxynaphthalen-2-yl)acrylic acid], the “share of MONACRA demethylation for which CYP4A11 is responsible” value was > 93%.
